One block for each molecule: values may come before it.
Key:
[1] = Stability of 4-EPR internal standard solution stored in the refrigerator; type: physicochemical; details: six months
Procedure: Assay is by high pressure liquid chromatography using a Waters HPLC System consisting of a Model 6000A solvent delivery system with a Model 440 UV absorbance detector (365 nm filter), and either a Model U6K injector (2 ml sample loop) or a Waters Intelligent Sample Processor (WISP™). […] The column is a 10 cm×4.6 mm (i.d.) Brownlee Labs RP-18 Spheri-5 (5μ) stainless steel column equipped with a 3 cm×4.6 mm (i.d.) Brownlee Labs RP-18 (10μ) stainless steel guard column. The mobile phase is acetonitrile:water:glacial acetic acid (75:23:2, v/v/v) and is prepared in 2 liter quantities. The components of the mobile phase are mixed together, filtered through a 5 μm Millipore® filter apparatus and degassed under vacuum for one-half hour while stirring. The internal standard for the assay is N-(4-ethoxyphenyl)retinamide (4-EPR). […]
The procedure of Example 1 is followed using a 4 -EPR internal standard containing 100 μg/ml which is prepared by weighing 10.0 mg of 4-EPR into a 100 ml volumetric flask and bringing to volume with methanol. A 1/2000 dilution of this stock solution is made by transferring 0.1 ml of 100 μg/ml 4-EPR solution into a 200 ml volumetric flask and bringing to volume with methanol. The resulting solution contains 50 ng/ml of 4-EPR. […] For the assay, a 1.0 ml aliquot of plasma is transferred to a 15 ml screw-cap conical bottomed glass centrifuge tube. […]

rats = details: oral; cited from earlier work
[2] = Bioavailability of HPR in vivo (general statements); details: small particle size of the HPR
mammary cancer = details: rats, induced with N-nitroso-N-methyl urea; cited from earlier work
[3] = cited from earlier work
[4] = one formulation of HPR, 5 mg/kg, rats, cited from earlier work
[5] = cited from earlier work; remark: listed apart in the source

Stability of 4-EPR solution ([1]; 50 ng/ml in methanol): without signs of decomposition
Stability of 4-EPR solution ([1]; 500 ng/ml in acetonitrile): without signs of decomposition
SMILES: CCOc1ccc(NC(=O)C=C(C)C=CC=C(C)C=CC2=C(C)CCCC2(C)C)cc1 [Formulation 4-EPR, N-(4-ethoxyphenyl)retinamide]

SMILES: CC1=C(/C=C/C(C)=C/C=C/C(C)=C/C(=O)Nc2ccc(O)cc2)C(C)(C)CCC1 [HPR, N-(4-Hydroxyphenyl)-all-trans-retinamide]
Toxicity relative to retinyl acetate and retinoic acid (rats): less toxic when given orally to rats then retinyl acetate and retinoic acid
Effect of small particle size on bioavailability [2]: tends to aid bioavailability
Protection against mammary cancer (mammary cancer): protects against mammary cancer in rats
Solubility in water [3]: virtually insoluble in water
Half-life of elimination ([4]; oral): 12 h
Oral absorption ([4]; oral): incompletely absorbed after oral administration
Elimination [4]: eliminated slowly

SMILES: CC1=C(/C=C/C(C)=C/C=C/C(C)=C\C(=O)O)C(C)(C)CCC1 [isotretinoin]
Effect of food intake on bioavailability [5]: affected by food intake
